Test results from patent US20180217131A1, “Novel Cell Based Assay” (Medical Diagnostic Laboratories, LLC, priority 2017, published 2018).
Changes are numbered by the printed parent chain.

Tests used:
Format in all cases: cell-based
[1] = target: T1, R435C mutant of aromatase (CYP19A1) (Homo sapiens, UniProt P11511, R435C); assay: Aromatase reporter assay with R435C mutant of CYP19A1
T1 construct: expressed in transfected cells; host or cells: HEK 293-derived reporter cells (clone #4 with ESR1 co-transfected; clone #1 stably expressing ESR1)
T1 sequence (P11511 1-503 R435C): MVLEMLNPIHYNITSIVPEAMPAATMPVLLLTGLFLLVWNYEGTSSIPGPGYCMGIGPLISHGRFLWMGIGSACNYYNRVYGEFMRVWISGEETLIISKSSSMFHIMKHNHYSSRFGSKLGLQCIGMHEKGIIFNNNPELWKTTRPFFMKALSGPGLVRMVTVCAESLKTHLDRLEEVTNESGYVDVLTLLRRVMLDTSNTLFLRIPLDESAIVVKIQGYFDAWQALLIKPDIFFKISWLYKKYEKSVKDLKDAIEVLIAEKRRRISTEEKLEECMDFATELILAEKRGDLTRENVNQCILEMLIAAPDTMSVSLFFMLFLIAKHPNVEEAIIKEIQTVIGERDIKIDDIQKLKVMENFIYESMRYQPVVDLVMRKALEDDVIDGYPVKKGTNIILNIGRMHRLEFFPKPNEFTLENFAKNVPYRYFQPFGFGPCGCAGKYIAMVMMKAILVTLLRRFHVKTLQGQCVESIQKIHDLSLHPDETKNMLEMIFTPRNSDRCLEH
Method: (§1) The transfected cells were treated with a serial dilution of testosterone. The luciferase reporter activity was measured 24 hours post-transfection.
R435C corresponds to a missense mutation of CYP19A1, which changed arginine (R) into cysteine (C) at amino acid position of 435. In order to functionally characterize this mutation, PCR-mediated overlapping extension was employed to construct linear expression cassette of aromatase carrying this mutation. We first transfected the linear expression cassette of either wild-type aromatase or mutant aromatase DNA into the reporter cells followed by treatment with testosterone and its inhibitors using “all-in-one” method. The luciferase reporter activity was measured 24 hours post-transfection.

[2] = target: T2, aromatase (wild-type CYP19A1) (Homo sapiens, UniProt P11511); assay: Aromatase reporter assay, clone #1 cells (stable 3×ERE-Luc and wild-type ESR1) transfected with linear expression cassette of wild-type CYP19A1
T2 construct: expressed in transfected cells; host or cells: HEK 293-derived 3xERE-luc clone #4 (co-transfected with ESR1) or clone #1 (stably expressing wild-type ESR1)
T2 sequence (P11511 1-503): T1 sequence (P11511 1-503 R435C) with C435R
Method: The luciferase reporter activity was measured 24 hours post-transfection.

[3] = target: T2, aromatase (wild-type CYP19A1); assay: Aromatase reporter assay, 3×ERE-luc clone #4 cells transfected with expression constructs of estrogen receptor and aromatase; conditions: 24 hours; for testosterone-induced luciferase reporter activity in the presence of aromatase inhibitor: clone #4, testosterone with or without inhibitor
Method: A serial dilution of testosterone was added to the cells for 24 hours. The luciferase reporter activity was measured.
The transfected cells were treated with testosterone in the presence or absence of aromatase inhibitors, anastrozole and letrozole, for 24 hours (FIG. 31).

[4] = target: T3, R192H mutant of aromatase (CYP19A1) (Homo sapiens, UniProt P11511, R192H); assay: Aromatase reporter assay with R192H mutant of CYP19A1
T3 construct: expressed in transfected cells; host or cells: HEK 293-derived reporter cells (clone #4 with ESR1 co-transfected; clone #1 stably expressing ESR1)
T3 sequence (P11511 1-503 R192H): T1 sequence (P11511 1-503 R435C) with R192H, C435R
Method: as §1
R192H corresponds to a missense mutation of CYP19A1, which changed arginine (R) into histidine (H) at amino acid position of 192. In order to functionally characterize this mutation, PCR-mediated overlapping extension was employed to construct linear expression cassette of aromatase carrying this mutation. We first transfected the linear expression cassette of either wild-type aromatase or mutant aromatase DNA into the reporter cells followed by treatment with testosterone and its inhibitors using “all-in-one” method. The luciferase reporter activity was measured 24 hours post-transfection.
We used the formula as illustrated in the above-mentioned example to calculate the activity of aromatase.

Structure (SMILES)	luciferase activity upon treatment of testosterone ([1]; clone #1, linear expression cassette of R435C, all-in-one method)	induction of luciferase reporter activity upon testosterone exposure ([1]; clone #4, expression constructs of estrogen receptor and R435C aromatase)	luciferase reporter activity upon addition of testosterone ([2]; clone #1, 25 ng or 50 ng aromatase linear DNA, testosterone for 6 hours)	reporter signal at 1 pM of testosterone ([2]; clone #1, 50 ng linear cassette, testosterone for 24 hours, 1 pM)	luciferase activity upon treatment of testosterone ([3]; clone #4, estrogen receptor and aromatase constructs, serial dilution of testosterone)	luciferase activity upon treatment of testosterone, compared to wild type ([4]; clone #1, linear expression cassette of R192H, all-in-one method)	luciferase reporter activity upon testosterone, compared to wild type ([4]; clone #4, expression constructs of estrogen receptor and R192H aromatase, serial dilution of testosterone)	testosterone-induced luciferase reporter activity in the presence of aromatase inhibitor [3]
C[C@]12CC[C@H]3[C@@H](CCC4=CC(=O)CC[C@@]43C)[C@@H]1CC[C@@H]2O [testosterone]	no increase in luciferase activity was observed	no induction of luciferase reporter activity	responded to testosterone in a dose-dependent manner	robust reporter signal was detected	dose dependent activation of luciferase activity was observed	reduced luciferase activity was observed	reduced luciferase reporter activity	–
N#Cc1ccc(C(c2ccc(C#N)cc2)n2cncn2)cc1 [letrozole]	–	–	–	–	–	–	–	reduced
CC(C)(C#N)c1cc(Cn2cncn2)cc(C(C)(C)C#N)c1 [anastrozole]	–	–	–	–	–	–	–	reduced
